Results taken from US6063814A, “Phorbol esters as anti-neoplastic and white blood cell elevating agents” (priority 1997, dated 2000).
Where “and” joins values, the source holds several entries; their conditions need not be identical. Equal entries are not always repeated.

Assays:
[1] = system: leukemia (bone marrow myeloblast and promyelocyte); assay: Clinical treatment of leukemia patients with TPA; format: in vivo, humans; conditions: for bone marrow suppression, infection or bleeding: during and after treatment; for Spleen below the rib cage after treatment: 3 cm before
Protocol: The results obtained upon treatment of patients with TPA as presented in tabular form and in subsequent examples.
In the subjects identified as (1) through (5) below, chronic myelocytic leukemia had progressed to acute myelocytic leukemia before treatment with TPA.
Subject No. (1), patient No. 28879. Blood profile before TPA treatment: Hb: 28 g/L; WBC: 1.0×10^9 /L, platelet: 135×10^9 /L. Bone marrow profile before TPA treatment: myeloblast+promyelocyte: 30%. TPA treatment: 1 mg/week (0.25 mg administered four times) for two weeks. Blood profile after treatment: Hb: 86 g/L; WBC: 2.8×10^9 /L, platelet: 283×10^9 /L. Bone marrow profile after TPA treatment: myeloblast+promyelocyte: 2.5%.
Subject No. (2), patient No. 29926. Diagnosis: chronic myelocytic leukemia became acute myelocytic leukemia before treatment. Blood profile before TPA treatment: Hb: 94 g/L; WBC: 9.8×10^9 /L, platelet: 63×10^9 /L. Spleen: 3 cm below the rib cage. Bone marrow profile before TPA treatment: myeloblast+promyelocyte: 36%. TPA treatment: 1 mg/week for 5 weeks. Blood profile after treatment: Hb: 104 g/L; WBC: 4.9×10^9 /L, platelet: 80×10^9 /L. Spleen: 0.5 cm below the rib cage. Bone marrow profile after TPA treatment: myeloblast+promyelocyte: 3%.
Subject No. (3), patient No. 18102. Diagnosis: chronic myelocytic leukemia became acute myelocytic leukemia before treatment. Blood profile before TPA treatment: Hb: 70 g/L; WBC: 27.5×10^9 /L, platelet: 21×10^9 /L. Bone marrow profile before TPA treatment: myeloblast+promyelocyte: 90%. TPA treatment: 1 mg/week for 7 weeks. Blood profile after treatment: Hb: 96 g/L; WBC: 22×10^9 /L, platelet: 70×10^9 /L. Bone marrow profile after TPA treatment: myeloblast+promyelocyte: 2%.
Subject No. (4), patient No. 21315. Diagnosis: chronic myelocytic leukemia became acute myelocytic leukemia before treatment. Blood profile before TPA treatment: Hb: 87 g/L; WBC: 19×10^9 /L, platelet: 150×10^9 /L. Bone marrow profile before TPA treatment: myeloblast+promyelocyte: 67.5%. TPA treatment: 1 mg/week for 7 weeks. Blood profile after treatment: Hb: 45 g/L; WBC: 53.5×10^9 /L, platelet: 210×10^9 /L. Bone marrow profile after TPA treatment: myeloblast+promyelocyte: 4.5%.
Subject No. (5), patient No. 23965. Diagnosis: chronic myelocytic leukemia progressed to acute myelocytic leukemia. Blood profile before TPA treatment: Hb: 84 g/L; WBC: 36.6×10^9 /L, platelet: 290×10^9 /L. Bone marrow profile before TPA treatment: myeloblast+promyelocyte: 27.5%. TPA treatment: 1 mg/week for 2 weeks. Blood profile after treatment: Hb: 84 g/L; WBC: 27.3×10^9 /L, platelet: 170×10^9 /L. Bone marrow profile after TPA treatment: myeloblast+promyelocyte: 1.5%.
All the above patients had received various regimens of chemotherapy prior to the TPA treatment, including hydroxyurea, busulfan, and Ara-C, etc. but none was effective at the start of TPA treatment. Before the administration of TPA, patients received injection of 6×10^5 units of vitamin D3 (VD3)/person for 2 days; after the TPA administration, patients received i.v. infusion of 40 mg of Ara-C/d×3. […] These patients have been in clinical remission for over 6 months.
Subject No. (6), person. Diagnosed as AML-M3. Symptoms began in January, 1995. Blood profile: Hb:60 g/L, WBC: 0.4×10^9 /L, platelet: 40×10^9 /L. Bone marrow profile: myeloblast+promyelocyte: 48%. The TPA treatment period was 1 mg/week for three weeks, and 6×10^5 units VD3 /d×3 were injected prior to the treatment. […] The patient has been in remission after treatment for at least 6 months.
Subject No. (7), person. Diagnosis: MDS-REAB accompanied by an increased number of monocytes. […] The patient started to receive a combination treatment of 1,25-(OH)2 VD3 +TPA+low dose Ara-C. TPA dosage: 0.25-0.5 mg (1 mg per week) for eleven weeks. […]

[2] = Chemical stability of TPA solutions on storage; format: physicochemical; conditions: dark
Protocol: 0.10, 0.125, 0.25 or 0.5 mg of TPA was dissolved in 1.3 ml 95-100% U.S.P. ethanol and 0.7 ml saline. Under sterile conditions, TPA was first dissolved in ethanol, then saline was added, mixed vigorously, bacteriologically filtered, and stored in sealed sterile amber vials containing either 0.10 mg/2 ml, 0.125 ml/2 ml or 0.25 mg/2 ml, 0.5 mg/2 ml.
0.10, 0.125, 0.25 or 0.5 mg of TPA was dissolved in 0.2 ml of ethanol, 1.2 ml of isopropanol and 0.6 ml saline. Under sterile conditions, TPA was first dissolved in the ethanol and isopropanol, then saline was added, and the mixture was vigorously mixed, bacteriologically filtered and stored in sealed sterile amber vials containing either 0.10 mg/2 ml, 0.125 ml/2 ml or 0.25 mg/2 ml or 0.5 mg/2 ml.

[3] = subject 6, AML-M3, TPA 1 mg/week three weeks, VD3 prior
[4] = subject 7, MDS-REAB, 1,25-(OH)2 VD3+TPA+low dose Ara-C, eleven weeks
[5] = subject 7, combination with 1,25-(OH)2 VD3 and Ara-C
[6] = subject 7, combination with 1,25-(OH)2 VD3 and Ara-C, blood
[7] = subject 8, AML-M3, retinoic acid failed
[8] = subject 9, secondary aplastic anemia, TPA 0.25 mg×2
[9] = subject 10, CML, TPA 0.25 mg once
[10] = subject 10, CML, TPA 0.25 mg once, second day
[11] = subjects 1-5, VD3 before, Ara-C after TPA

## CCCCCCCCCCCCCC(=O)O[C@@H]1[C@@H](C)[C@@]2(O)[C@@H](C=C(CO)C[C@]3(O)C(=O)C(C)=C[C@@H]23)[C@@H]2C(C)(C)[C@]12OC(C)=O [TPA, Phorbol 12-Myristate-13-Acetate]
[1]; CML progressed to AML, TPA 1 mg/week for 2-7 weeks, VD3 before, Ara-C after
  Bone marrow myeloblast+promyelocyte after TPA treatment: 2.5% and 3% and 2% and 4.5% and 1.5%
[1]; many of the patients, from first treatment
  duration of clinical remission: over six months
[1]; refractory leukemia patients
  clinical remission: clinical remission was achieved in a relatively short time
  bone marrow suppression, infection or bleeding: no bone marrow suppression, infection or bleeding
[1]; subject 2, TPA 1 mg/week for 5 weeks
  Spleen below the rib cage after treatment: 0.5 cm
[1]; subject 6, AML-M3
  duration of remission: at least 6 months
  remission: met the standard for AML-M3 remission
[1]; [3]
  Bone marrow myeloblast+promyelocyte after first treatment period: 3%
  Hb after first treatment period: 118 g/L
  WBC after first treatment period: 4.1e+09 L⁻¹
  platelet after first treatment period: 8e+10 L⁻¹
[1]; [4]
  Hb after treatment: 42 g/L
  WBC after treatment: 1.02e+10 L⁻¹
  platelet after treatment: 3.4e+10 L⁻¹
  Spleen below the rib cage after treatment: 0.5 cm
[1]; [5]
  Bone marrow myeloblast after treatment: 4%
  Bone marrow promyelocyte after treatment: 6%
[1]; [6]
  Lymphocyte after treatment: 19%
  Monocyte after treatment: 1%
  Neutrophil after treatment: 80%
  Promyelocytes in blood after treatment: not detected
[1]; [7]
  WBC after TPA treatment: 2.2e+09 L⁻¹
  platelet after TPA treatment: 2.23e+11 L⁻¹
[1]; [8]
  Hb after TPA treatment: 32 g/L
  platelet after TPA treatment: 5.7e+10 L⁻¹
[1]; [9]
  Hb after treatment: 96 g/L
  WBC after treatment: 2e+09 L⁻¹
  platelet after treatment: 1.12e+11 L⁻¹
[1]; [10]
  myeloblast+promyelocyte: 4%
  myelocyte: 5%
[1]; [11]
  clinical remission in bone marrow parameters: all achieved clinical remission in bone marrow parameters in a short time
  duration of clinical remission: over 6 months
[1]; subjects 1-5
  bone marrow suppression, infection or bleeding: no bone marrow suppression, nor infection or bleeding
[2]; cold temperature, up to one year
  chemical change on storage: no chemical change
[2]; room temperature, up to two months
  chemical change on storage: no chemical change
